Where no end group is shown, it is not given here.
What was measured:
Assay type in all cases: cell-based, BALB/c mice
IL-4 = test: Ovalbumin-induced IL-4 production by splenocytes from ovalbumin-sensitized mice (ELISA); conditions: ovalbumin 100 μg/mL + 100 μM peptide added daily, four days; ovalbumin alone 309.3 ± 49.6
Protocol: (§1) Splenocytes from ovalbumin-sensitized mice were cultured for four days with no antigen, with ovalbumin alone, or with ovalbumin plus the STAT-6-IP or a STAT-6 Tyr-641 mutant (STAT-6-CP; Tyr-Ala-Arg-Ala-Ala-Ala-Arg-Gln-Ala-Arg-Ala-Gly-Arg-Gly-Phe-Val-Ser-Thr-Thr; SEQ ID NO:8). The STAT-6-IP and STAT-6-CP were added to splenocyte cultures daily. Treatment with the STAT-6-IP, but not the STAT-6-CP, reduced the supernatant levels of both IL-4 and IL-13 (Table 3).
(§2) BALB/c mice were sensitized systemically by two weekly i.p. injections of 0.025% ovalbumin mixed with 4 mg/mL Al(OH)3. One week after the second sensitization, mice were sacrificed and spleens harvested. A single cell suspension of splenocytes (5×10^6 cells/mL) was cultured in RPMI-1640 medium containing 10% heat-inactivated fetal bovine serum and 2 mM L-glutamine, 50 μM 2-mercaptoethanol, 100 U/mL penicillin, and 100 μg/mL streptomycin sulfate. Splenocytes were cultured for four days in the presence or absence of 100 μg/mL ovalbumin, either alone or with 100 μM STAT-6-IP or STAT-6-CP, which were added daily. After four days, culture supernatants were harvested to quantify cytokine production by ELISA. […] Cytokine expression was monitored by flow cytometry and analyzed using CELLQUEST™ software (Becton Dickinson). […]

IFN-gamma = test: Ovalbumin-induced IFN-gamma production by splenocytes from ovalbumin-sensitized mice (ELISA); conditions: ovalbumin 100 μg/mL + 100 μM peptide added daily, four days; ovalbumin alone 567.9 ± 93.1
Protocol: as §1, §2

IFN-gamma mRNA = test: Semiquantitative RT-PCR of IFN-gamma mRNA in splenocytes; conditions: splenocytes cultured with ovalbumin plus peptide
Protocol: The levels of mRNA encoding IL-4, IL-13 and IFN-gamma were also evaluated by semiquantitative RT-PCR analysis. Ovalbumin-induced expression of both IL-4 and IL-13 mRNA was inhibited in splenocytes cultured with the STAT-6-IP and not the STAT-6-CP. […] The number of CD4+ T cells producing IL-4 was also quantified by intracellular cytokine staining. When splenocytes from ovalbumin-sensitized mice were cultured with ovalbumin, there was a significant increase in the number of CD4+ lymphocytes expressing IL-4 (Table 4). The increase in IL-4 expression was abrogated in splenocytes cultured with ovalbumin in the presence of the STAT-6-IP, while the STAT-6-CP had no effect.
Reverse transcriptase (RT)-PCR was used to monitor expression of mRNAs encoding IL-4, IL-13 and IFN-gamma. Materials for RNA extraction and RT-PCR were purchased from INVITROGEN™ Canada (Burlington, Ontario). Total RNA was extracted from splenocytes, treated with DNAse, and 1 μg of RNA was reverse transcribed into cDNA using SUPERSCRIPT™ II reverse transcriptase. […] PCR products were resolved by gel electrophoresis and visualized and quantified on a FLUORCHEM™ 8000 Imaging System (Alpha Innotech, San Leandro, Calif.) using ALPHAEASE™ software (Alpha Innotech). […]

Sequence: YARAAARQARAGRGFVSTT [STAT-6-CP, STAT-6 Tyr-641 mutant, control peptide]
- IL-4 (pg/mL ± SEM), culture supernatant (IL-4): 212.9 ± 4.1 pg/mL
- IFN-gamma (pg/mL ± SEM), culture supernatant (IFN-gamma): 513.6 ± 118.3 pg/mL
- Expression of IFN-gamma mRNA (IFN-gamma mRNA): did not change

From US7829528B2, “Compositions and methods for treating STAT-6 associated diseases or conditions” (The Rockefeller University, priority 2004, dated 2010)
